Patent US20070207952A1, “Long Acting Biologically Active Conjugates” (priority 2003, published 2007)
Where a SMILES comes first, the peptide text is derived from it. [ ]: non-standard residue; d: D form. The star is where a group is joined. Propanoyl(3-maleimido) = O=C1C=CC(=O)N1CCC(=O)*; Nle = CCCC[C@H](N)C(=O)O; AEEA = NCCOCCOCC(=O)O

Key:
HBX2 HIV-1 = experiment: Antiviral cytotoxicity assay with MT4 cells, modified peptides and conjugates; assay type: cell-based; conditions: HBX2 HIV-1, MT4 cells; average of 2-3 experiments
Protocol: (§1) Antiviral potency of the peptides was analyzed against HIV-1 HXB2 or NLA-3 strains using a cytotoxicity assay with MT4 cells as previously described (ref 1-3) with minor modifications. MT-4 cells (1.5×10^4/ml) were exposed to 200 50% tissue culture infective doses (TCID50) of viruses in the presence of various concentrations of test compound in 96 well microtiter plates and incubated at 37° C. for 5 days. Cytotoxicity of HIV was measured by the addition of 3-(4,5-dimethylthiazol-2-yl)-2,5-diphenytetrazolium bromide (MMI) solution to each well to a final concentration of 0.75 mg/ml, and incubation for 1 hour a 37° C. After incubation, cells were dissolved in isopropanoyrriton-X 100/HCl (1000:50:25) solution. Absorbance was monitored in a microplate reader (Spectramax, Molecular Devices) at 540 rm and 690 nm. MT-4 cells were obtained from the AIDS Research and Reference Reagent Program (ARRRP, Division of AIDS, NIAID, NIH: MT-4 from Dr. D. Richman). Cells were propagated in RPMI 1640 growth medium supplemented with 10% fetal bovine serum, 50U of penicillin and 50 μg of streptomycin per ml ([Ivitrogen, Carlsbad Calif.).

HIV NL4-3 = experiment: Antiviral cytotoxicity (MTT) assay with MT4 cells, HIV NL4-3; assay type: cell-based, HIV-1; conditions: MT-4 cells, 5 days, average of 2 or 3 experiments
Protocol: as §1

HIV-1 IIIB = experiment: Antiviral cytotoxicity (MTT) assay with MT4 cells, HIV-1 IIIB; assay type: cell-based; conditions: MT-4 cells, 5 days, average of 2 or 3 experiments
[1] = Kilby et al 1998; cited from earlier work

| Compound | IC50 (HBX2 HIV-1) [nM] | IC50 (HIV NL4-3) [nM] | IC50 (HIV-1 IIIB) [nM] | half-life [1] [h] |
| --- | --- | --- | --- | --- |
| CCCC[C@H](NC(=O)[C@H](Cc1c[nH]c2ccccc12)NC(=O)COCCOCCNC(=O)CCN1C(=O)C=CC1=O)C(=O)N[C@@H](CCC(=O)O)C(=O)N[C@@H](Cc1c[nH]c2ccccc12)C(=O)N[C@@H](CC(=O)O)C(=O)N[C@@H](CCCNC(=N)N)C(=O)N[C@@H](CCCCN)C(=O)N[C@H](C(=O)N[C@@H](CCC(=O)O)C(=O)N[C@@H](CCC(=O)O)C(=O)N[C@@H](Cc1ccc(O)cc1)C(=O)N[C@H](C(=O)N[C@@H](CCCCN)C(=O)N[C@@H](CCCCN)C(=O)N[C@H](C(=O)N[C@@H](CCCCN)C(=O)N[C@@H](CCCCN)C(=O)N[C@@H](CC(C)C)C(=O)N[C@H](C(=O)N[C@@H](CCC(=O)O)C(=O)N[C@@H](CCC(=O)O)C(=O)N[C@@H](CO)C(=O)N[C@@H](CCC(N)=O)C(=O)N[C@@H](CCC(=O)O)C(=O)N[C@@H](CCC(N)=O)C(=O)N[C@@H](CCC(N)=O)C(=O)N[C@@H](CCC(=O)O)C(=O)N[C@@H](CCCCN)C(=O)N[C@@H](CC(N)=O)C(=O)N[C@@H](CCC(=O)O)C(=O)N[C@@H](CCCCN)C(=O)N[C@@H](CCC(=O)O)C(=O)N[C@@H](CC(C)C)C(=O)N[C@@H](CCCCN)C(N)=O)[C@@H](C)CC)[C@@H](C)CC)[C@@H](C)O)[C@@H](C)CC [SPI-70038] ({Propanoyl(3-maleimido)-AEEA}-W[Nle]EWDRKIEEYTKKIKKLIEESQEQQEKNEKELK-NH2) | 2 | – | – | – |
| CCCC[C@H](NC(=O)[C@H](Cc1c[nH]c2ccccc12)NC(C)=O)C(=O)N[C@@H](CCC(=O)O)C(=O)N[C@@H](Cc1c[nH]c2ccccc12)C(=O)N[C@@H](CC(=O)O)C(=O)N[C@@H](CCCNC(=N)N)C(=O)N[C@@H](CCCCN)C(=O)N[C@H](C(=O)N[C@@H](CCC(=O)O)C(=O)N[C@@H](CCC(=O)O)C(=O)N[C@@H](Cc1ccc(O)cc1)C(=O)N[C@H](C(=O)N[C@@H](CCCCN)C(=O)N[C@@H](CCCCN)C(=O)N[C@H](C(=O)N[C@@H](CCCCN)C(=O)N[C@@H](CCCCN)C(=O)N[C@@H](CC(C)C)C(=O)N[C@H](C(=O)N[C@@H](CCC(=O)O)C(=O)N[C@@H](CCC(=O)O)C(=O)N[C@@H](C)C(=O)N[C@@H](CCC(N)=O)C(=O)N[C@@H](CCC(=O)O)C(=O)N[C@@H](CCC(N)=O)C(=O)N[C@@H](CCC(N)=O)C(=O)N[C@@H](CCC(=O)O)C(=O)N[C@@H](CCCCN)C(=O)N[C@@H](CC(N)=O)C(=O)N[C@@H](CCC(=O)O)C(=O)N[C@@H](CCCCN)C(=O)N[C@@H](CCC(=O)O)C(=O)N[C@@H](CC(C)C)C(=O)N[C@@H](CCCCN)C(N)=O)[C@@H](C)CC)[C@@H](C)CC)[C@@H](C)O)[C@@H](C)CC [peptide 8, Ac-WXEWDRKIEEYTKKIKKLIEEAQEQQEKNEKELK-NH2] (Ac-W[Nle]EWDRKIEEYTKKIKKLIEEAQEQQEKNEKELK-NH2) | – | 1.2 | 2.6 | – |
| CCCC[C@H](NC(=O)[C@H](Cc1c[nH]c2ccccc12)NC(C)=O)C(=O)N[C@@H](CCC(=O)O)C(=O)N[C@@H](Cc1c[nH]c2ccccc12)C(=O)N[C@@H](CC(=O)O)C(=O)N[C@@H](CCCNC(=N)N)C(=O)N[C@@H](CCCCN)C(=O)N[C@H](C(=O)N[C@@H](CCC(=O)O)C(=O)N[C@@H](CCC(=O)O)C(=O)N[C@@H](Cc1ccc(O)cc1)C(=O)N[C@H](C(=O)N[C@@H](CCCCN)C(=O)N[C@@H](CCCCN)C(=O)N[C@H](C(=O)N[C@@H](CCC(=O)O)C(=O)N[C@@H](CCC(=O)O)C(=O)N[C@@H](CC(C)C)C(=O)N[C@H](C(=O)N[C@@H](CCCCN)C(=O)N[C@@H](CCCCN)C(=O)N[C@@H](CO)C(=O)N[C@@H](CCC(N)=O)C(=O)N[C@@H](CCC(=O)O)C(=O)N[C@@H](CCC(N)=O)C(=O)N[C@@H](CCC(N)=O)C(=O)N[C@@H](CCC(=O)O)C(=O)N[C@@H](CCCCN)C(=O)N[C@@H](CC(N)=O)C(=O)N[C@@H](CCC(=O)O)C(=O)N[C@@H](CCCCN)C(=O)N[C@@H](CCC(=O)O)C(=O)N[C@@H](CC(C)C)C(=O)N[C@@H](CCCCN)C(N)=O)[C@@H](C)CC)[C@@H](C)CC)[C@@H](C)O)[C@@H](C)CC [peptide 9, Ac-WXEWDRKIEEYTKKIEELIKKSQEQQEKNEKELK-NH2] (Ac-W[Nle]EWDRKIEEYTKKIEELIKKSQEQQEKNEKELK-NH2) | – | 0.9 | 1.7 | – |
| CCCC[C@H](NC(=O)[C@H](Cc1c[nH]c2ccccc12)NC(C)=O)C(=O)N[C@@H](CCC(=O)O)C(=O)N[C@@H](Cc1c[nH]c2ccccc12)C(=O)N[C@@H](CC(=O)O)C(=O)N[C@@H](CCCNC(=N)N)C(=O)N[C@@H](CCCCN)C(=O)N[C@H](C(=O)N[C@@H](CCC(=O)O)C(=O)N[C@@H](CCC(=O)O)C(=O)N[C@@H](Cc1ccc(O)cc1)C(=O)N[C@H](C(=O)N[C@@H](CCCCN)C(=O)N[C@@H](CCCCN)C(=O)N[C@H](C(=O)N[C@@H](CCC(=O)O)C(=O)N[C@@H](CCC(=O)O)C(=O)N[C@@H](CC(C)C)C(=O)N[C@H](C(=O)N[C@@H](CCCCN)C(=O)N[C@@H](CCCCN)C(=O)N[C@@H](C)C(=O)N[C@@H](CCC(N)=O)C(=O)N[C@@H](CCC(=O)O)C(=O)N[C@@H](CCC(N)=O)C(=O)N[C@@H](CCC(N)=O)C(=O)N[C@@H](CCC(=O)O)C(=O)N[C@@H](CCCCN)C(=O)N[C@@H](CC(N)=O)C(=O)N[C@@H](CCC(=O)O)C(=O)N[C@@H](CCCCN)C(=O)N[C@@H](CCC(=O)O)C(=O)N[C@@H](CC(C)C)C(=O)N[C@@H](CCCCN)C(N)=O)[C@@H](C)CC)[C@@H](C)CC)[C@@H](C)O)[C@@H](C)CC [peptide 11, Ac-WXEWDRKIEEYTKKIEELIKKAQEQQEKNEKELK-NH2] (Ac-W[Nle]EWDRKIEEYTKKIEELIKKAQEQQEKNEKELK-NH2) | – | 1.1 | 2.1 | – |
| enfuvirtide | – | 120 | 4.7 | 1.8 |
